Data reported in ChEMBL document CHEMBL5465560, “Selectivity Literature for EUbOPEN Chemogenomic Library” (2024).

How the values were obtained:
[1] = biological target: T1, Serine/threonine-protein kinase Sgk1 (Homo sapiens) (UniProt O00141); test: Selectivity interaction (KinomeScan (DiscoverX)) EUB0001619a SGK1; conditions: at 1 µM
T1 sequence (whole entry): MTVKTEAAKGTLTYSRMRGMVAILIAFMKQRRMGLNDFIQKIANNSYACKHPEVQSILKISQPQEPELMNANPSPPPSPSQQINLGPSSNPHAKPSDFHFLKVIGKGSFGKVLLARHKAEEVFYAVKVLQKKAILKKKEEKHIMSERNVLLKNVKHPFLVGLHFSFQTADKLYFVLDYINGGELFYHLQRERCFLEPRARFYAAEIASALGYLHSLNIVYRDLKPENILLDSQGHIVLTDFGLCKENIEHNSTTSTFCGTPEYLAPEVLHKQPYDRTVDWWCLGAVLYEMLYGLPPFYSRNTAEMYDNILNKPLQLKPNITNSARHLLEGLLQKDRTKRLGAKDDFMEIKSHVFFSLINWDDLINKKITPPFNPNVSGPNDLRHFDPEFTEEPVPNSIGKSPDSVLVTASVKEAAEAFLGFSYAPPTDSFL

[2] = biological target: T2, Activin receptor type-1 (Homo sapiens) (UniProt Q04771); test: Selectivity interaction (KinomeScan (DiscoverX)) EUB0000045b ACVR1
T2 sequence (whole entry): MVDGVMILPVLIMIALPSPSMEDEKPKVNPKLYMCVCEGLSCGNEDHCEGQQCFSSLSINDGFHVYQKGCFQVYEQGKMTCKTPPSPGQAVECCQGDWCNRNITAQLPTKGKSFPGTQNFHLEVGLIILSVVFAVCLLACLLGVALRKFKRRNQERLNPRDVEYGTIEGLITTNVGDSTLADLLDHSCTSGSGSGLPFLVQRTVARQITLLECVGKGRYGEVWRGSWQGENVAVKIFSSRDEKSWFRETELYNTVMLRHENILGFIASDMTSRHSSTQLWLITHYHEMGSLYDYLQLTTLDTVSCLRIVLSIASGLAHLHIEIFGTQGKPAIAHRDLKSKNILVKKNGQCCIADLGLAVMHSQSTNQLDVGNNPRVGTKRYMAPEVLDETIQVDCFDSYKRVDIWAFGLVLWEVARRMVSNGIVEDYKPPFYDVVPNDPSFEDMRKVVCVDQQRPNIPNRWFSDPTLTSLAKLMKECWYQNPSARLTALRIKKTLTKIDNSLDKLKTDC

[3] = biological target: T3, Serine/threonine-protein kinase Nek3 (Homo sapiens) (UniProt P51956); test: Selectivity interaction (KinomeScan (DiscoverX)) EUB0000045b NEK3
T3 sequence (whole entry): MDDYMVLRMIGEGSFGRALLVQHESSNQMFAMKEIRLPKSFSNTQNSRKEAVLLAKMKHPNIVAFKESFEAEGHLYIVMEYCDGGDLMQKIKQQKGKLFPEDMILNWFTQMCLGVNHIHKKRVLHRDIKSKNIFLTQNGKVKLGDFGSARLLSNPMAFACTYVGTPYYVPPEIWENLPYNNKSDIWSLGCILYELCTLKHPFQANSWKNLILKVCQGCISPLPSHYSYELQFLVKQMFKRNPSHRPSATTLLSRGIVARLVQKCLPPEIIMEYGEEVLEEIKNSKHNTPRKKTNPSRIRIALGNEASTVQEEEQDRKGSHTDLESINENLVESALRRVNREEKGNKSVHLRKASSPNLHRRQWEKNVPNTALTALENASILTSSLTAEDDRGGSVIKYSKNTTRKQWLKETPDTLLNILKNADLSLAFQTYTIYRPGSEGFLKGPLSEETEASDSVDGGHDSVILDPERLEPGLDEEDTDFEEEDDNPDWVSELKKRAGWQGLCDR

[4] = biological target: Serine/threonine-protein kinase ATR (Homo sapiens) (UniProt Q13535); test: Selectivity interaction (Kinase panel (KiNativ target engagement assay in Jurkat cells)) EUB0001635a ATR; type: cell-based; conditions: at 1 µM
[5] = biological target: T4, Serine/threonine-protein kinase ULK3 (Homo sapiens) (UniProt Q6PHR2); test: Selectivity interaction (Kinase panel (KiNativ target engagement assay in Jurkat cells)) EUB0001635a ULK3; type: cell-based; conditions: at 1 µM
T4 sequence (whole entry): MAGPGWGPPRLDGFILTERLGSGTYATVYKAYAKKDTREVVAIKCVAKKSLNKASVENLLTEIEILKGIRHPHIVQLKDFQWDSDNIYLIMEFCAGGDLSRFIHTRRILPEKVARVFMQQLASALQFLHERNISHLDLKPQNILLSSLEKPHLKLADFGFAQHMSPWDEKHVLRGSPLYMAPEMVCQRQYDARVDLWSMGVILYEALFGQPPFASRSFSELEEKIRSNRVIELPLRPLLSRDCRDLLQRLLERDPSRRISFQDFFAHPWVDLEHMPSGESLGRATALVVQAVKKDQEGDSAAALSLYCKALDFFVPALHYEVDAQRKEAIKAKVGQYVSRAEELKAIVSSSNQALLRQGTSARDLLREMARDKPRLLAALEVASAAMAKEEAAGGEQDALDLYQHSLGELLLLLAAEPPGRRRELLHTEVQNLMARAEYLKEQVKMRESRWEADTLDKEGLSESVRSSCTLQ

[6] = biological target: Homeodomain-interacting protein kinase 3 (Homo sapiens, UniProt Q9H422); test: Selectivity interaction (KinomeScan (DiscoverX)) EUB0000229b HIPK3; conditions: at 10 µM
[7] = biological target: T5, NUAK family SNF1-like kinase 2 (Homo sapiens) (UniProt Q9H093); test: Selectivity interaction (KinomeScan (DiscoverX)) EUB0000092b NUAK2; conditions: at 10 µM
T5 sequence (whole entry): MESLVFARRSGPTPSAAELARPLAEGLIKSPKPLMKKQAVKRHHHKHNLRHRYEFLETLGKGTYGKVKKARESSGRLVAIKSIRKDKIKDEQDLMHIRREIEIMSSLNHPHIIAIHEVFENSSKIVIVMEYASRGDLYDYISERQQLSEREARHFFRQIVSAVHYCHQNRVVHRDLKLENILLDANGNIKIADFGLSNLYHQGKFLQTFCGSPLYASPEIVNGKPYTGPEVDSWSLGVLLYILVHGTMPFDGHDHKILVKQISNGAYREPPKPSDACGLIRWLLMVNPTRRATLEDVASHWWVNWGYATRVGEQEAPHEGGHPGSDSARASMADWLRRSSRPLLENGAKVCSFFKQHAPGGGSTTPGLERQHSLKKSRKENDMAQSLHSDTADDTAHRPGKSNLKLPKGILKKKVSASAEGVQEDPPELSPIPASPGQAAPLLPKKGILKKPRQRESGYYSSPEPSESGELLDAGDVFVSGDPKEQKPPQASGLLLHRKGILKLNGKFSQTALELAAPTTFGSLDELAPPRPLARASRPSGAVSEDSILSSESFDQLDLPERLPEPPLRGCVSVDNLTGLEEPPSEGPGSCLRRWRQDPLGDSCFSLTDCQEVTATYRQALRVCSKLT

Chain of Serine/threonine-protein kinase ATR (Homo sapiens) (Q13535 whole entry, looked up): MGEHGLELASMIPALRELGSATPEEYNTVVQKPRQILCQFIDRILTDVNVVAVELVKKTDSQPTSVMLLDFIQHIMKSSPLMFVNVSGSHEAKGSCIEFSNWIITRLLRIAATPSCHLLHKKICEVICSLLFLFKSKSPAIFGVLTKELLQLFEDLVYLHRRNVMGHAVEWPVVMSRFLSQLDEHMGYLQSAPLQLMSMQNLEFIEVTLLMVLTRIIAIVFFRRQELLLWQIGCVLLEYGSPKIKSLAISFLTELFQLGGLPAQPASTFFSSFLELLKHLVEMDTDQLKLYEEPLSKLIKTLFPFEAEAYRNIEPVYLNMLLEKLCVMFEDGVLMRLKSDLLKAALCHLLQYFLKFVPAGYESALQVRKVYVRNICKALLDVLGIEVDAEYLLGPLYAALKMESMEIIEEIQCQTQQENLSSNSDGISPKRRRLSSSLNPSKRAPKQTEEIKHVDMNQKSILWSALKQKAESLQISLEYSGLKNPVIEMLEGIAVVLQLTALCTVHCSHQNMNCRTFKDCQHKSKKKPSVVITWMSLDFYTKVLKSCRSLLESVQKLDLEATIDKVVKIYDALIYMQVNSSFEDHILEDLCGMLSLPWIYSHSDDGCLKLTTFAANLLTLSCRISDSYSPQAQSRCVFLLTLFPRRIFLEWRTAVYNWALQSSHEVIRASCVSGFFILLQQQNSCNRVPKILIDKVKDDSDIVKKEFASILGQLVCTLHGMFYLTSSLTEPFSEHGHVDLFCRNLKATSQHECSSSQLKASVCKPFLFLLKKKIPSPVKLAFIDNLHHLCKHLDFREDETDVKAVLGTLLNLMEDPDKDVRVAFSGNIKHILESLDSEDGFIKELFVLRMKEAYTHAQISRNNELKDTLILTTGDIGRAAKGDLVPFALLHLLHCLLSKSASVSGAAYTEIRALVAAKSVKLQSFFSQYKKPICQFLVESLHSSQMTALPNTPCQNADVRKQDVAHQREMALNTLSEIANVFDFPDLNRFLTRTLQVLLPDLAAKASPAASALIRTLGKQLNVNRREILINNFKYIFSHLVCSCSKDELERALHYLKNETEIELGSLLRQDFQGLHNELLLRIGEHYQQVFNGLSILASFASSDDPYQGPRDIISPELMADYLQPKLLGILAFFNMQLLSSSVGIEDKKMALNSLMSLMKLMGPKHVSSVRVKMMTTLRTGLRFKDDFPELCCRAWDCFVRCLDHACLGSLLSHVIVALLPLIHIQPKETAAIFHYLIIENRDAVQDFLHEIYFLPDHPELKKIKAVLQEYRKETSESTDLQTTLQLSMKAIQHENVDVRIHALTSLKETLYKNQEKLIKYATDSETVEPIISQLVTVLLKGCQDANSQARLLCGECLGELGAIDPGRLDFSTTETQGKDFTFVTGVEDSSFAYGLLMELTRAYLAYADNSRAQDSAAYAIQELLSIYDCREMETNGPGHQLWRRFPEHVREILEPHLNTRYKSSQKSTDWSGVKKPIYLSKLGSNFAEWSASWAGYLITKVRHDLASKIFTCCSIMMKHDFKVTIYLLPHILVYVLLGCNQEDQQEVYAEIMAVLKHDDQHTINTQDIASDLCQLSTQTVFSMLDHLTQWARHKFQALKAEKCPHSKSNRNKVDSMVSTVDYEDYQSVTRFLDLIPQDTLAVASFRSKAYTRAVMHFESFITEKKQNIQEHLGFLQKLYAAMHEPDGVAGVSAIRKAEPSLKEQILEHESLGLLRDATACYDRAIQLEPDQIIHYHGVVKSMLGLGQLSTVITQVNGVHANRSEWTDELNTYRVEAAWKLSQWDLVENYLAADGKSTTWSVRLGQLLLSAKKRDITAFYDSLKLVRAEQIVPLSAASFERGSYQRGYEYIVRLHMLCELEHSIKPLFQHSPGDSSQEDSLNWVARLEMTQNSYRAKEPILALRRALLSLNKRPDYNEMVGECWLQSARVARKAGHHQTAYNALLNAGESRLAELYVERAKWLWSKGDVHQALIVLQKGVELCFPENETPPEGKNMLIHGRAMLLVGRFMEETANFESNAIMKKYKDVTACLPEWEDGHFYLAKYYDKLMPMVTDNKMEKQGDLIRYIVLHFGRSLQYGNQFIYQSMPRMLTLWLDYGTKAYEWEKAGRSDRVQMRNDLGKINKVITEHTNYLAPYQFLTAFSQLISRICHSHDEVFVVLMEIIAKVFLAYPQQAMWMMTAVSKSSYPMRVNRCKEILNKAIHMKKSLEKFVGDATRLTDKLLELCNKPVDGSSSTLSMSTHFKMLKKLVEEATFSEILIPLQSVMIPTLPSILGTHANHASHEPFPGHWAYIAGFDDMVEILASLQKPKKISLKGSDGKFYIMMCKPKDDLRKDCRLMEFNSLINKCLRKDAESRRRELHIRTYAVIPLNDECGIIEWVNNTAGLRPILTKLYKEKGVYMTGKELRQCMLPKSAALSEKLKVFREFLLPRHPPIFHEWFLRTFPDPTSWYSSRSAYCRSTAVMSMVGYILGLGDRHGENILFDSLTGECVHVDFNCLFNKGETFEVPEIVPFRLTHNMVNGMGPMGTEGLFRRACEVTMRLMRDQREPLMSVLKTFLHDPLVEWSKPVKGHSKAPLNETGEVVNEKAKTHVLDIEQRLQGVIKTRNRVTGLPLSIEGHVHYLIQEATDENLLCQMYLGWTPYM
Chain of Homeodomain-interacting protein kinase 3 (Q9H422 whole entry, looked up): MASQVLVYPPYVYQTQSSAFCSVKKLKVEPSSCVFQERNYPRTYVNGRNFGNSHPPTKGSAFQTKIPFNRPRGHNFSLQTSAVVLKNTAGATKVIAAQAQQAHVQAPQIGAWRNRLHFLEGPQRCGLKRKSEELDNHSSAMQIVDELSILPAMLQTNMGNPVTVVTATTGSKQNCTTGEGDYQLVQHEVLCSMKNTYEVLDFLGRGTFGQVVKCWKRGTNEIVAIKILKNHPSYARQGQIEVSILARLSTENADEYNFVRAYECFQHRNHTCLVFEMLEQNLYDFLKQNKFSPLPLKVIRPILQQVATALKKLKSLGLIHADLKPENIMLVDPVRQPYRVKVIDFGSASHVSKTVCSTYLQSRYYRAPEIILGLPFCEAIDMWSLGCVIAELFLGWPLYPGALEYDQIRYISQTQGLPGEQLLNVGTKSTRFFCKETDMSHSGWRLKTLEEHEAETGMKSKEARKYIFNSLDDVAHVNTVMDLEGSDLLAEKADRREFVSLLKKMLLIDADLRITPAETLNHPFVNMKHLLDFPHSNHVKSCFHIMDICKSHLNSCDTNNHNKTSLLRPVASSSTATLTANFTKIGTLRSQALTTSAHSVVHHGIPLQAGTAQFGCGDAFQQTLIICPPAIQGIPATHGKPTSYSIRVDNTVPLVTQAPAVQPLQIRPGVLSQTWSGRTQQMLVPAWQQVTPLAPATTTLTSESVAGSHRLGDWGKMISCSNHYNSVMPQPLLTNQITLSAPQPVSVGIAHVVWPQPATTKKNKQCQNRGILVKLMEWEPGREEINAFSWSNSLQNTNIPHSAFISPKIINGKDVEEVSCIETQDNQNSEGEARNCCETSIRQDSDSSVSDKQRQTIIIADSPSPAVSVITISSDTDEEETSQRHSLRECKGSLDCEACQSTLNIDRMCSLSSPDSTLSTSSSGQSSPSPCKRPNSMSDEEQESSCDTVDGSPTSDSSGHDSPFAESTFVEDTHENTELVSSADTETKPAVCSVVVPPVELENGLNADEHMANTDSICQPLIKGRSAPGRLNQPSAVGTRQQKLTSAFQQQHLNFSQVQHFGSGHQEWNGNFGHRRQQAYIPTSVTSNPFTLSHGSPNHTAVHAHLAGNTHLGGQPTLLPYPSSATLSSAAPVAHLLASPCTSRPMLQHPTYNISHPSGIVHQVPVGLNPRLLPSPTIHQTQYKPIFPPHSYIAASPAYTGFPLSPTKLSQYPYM

Structure (SMILES): N#Cc1cccc(-c2c[nH]c3ncnc(N4CCOCC4)c23)c1
- % of control [1]: 65%

Structure (SMILES): C=CC(=O)Nc1cc(-n2c(=O)ccc3cnc4ccc(-c5ccc(NS(C)(=O)=O)cc5)cc4c32)ccc1C
- % of control ([2]; at 1 µM): 100%
- % of control ([2]; at 10 µM): 59%
- % of control ([3]; at 1 µM): 98%
- % of control ([3]; at 10 µM): 100%

Structure (SMILES): C=CC(=O)Nc1ccc(C(=O)Nc2[nH]nc3c2CN(C(=O)N[C@H](CN(C)C)c2ccccc2)C3(C)C)cc1
- % of engagement [4]: -11.3%
- % of engagement ([5]; Selectivity number of off-targets 0.0, Selectivity number of targets 233.0, Source Knowledge https://www.sciencedirect.com/science/article/pii/S2451945619300674?via%3Dihub): -7.1%
- % of engagement [5]: -1.1%

Structure (SMILES): COc1cc(N(C)c2ccnc3ccc(C(F)(F)F)cc23)cc(OC)c1OC
- % binding [6]: 81%

Structure (SMILES): CCC(=O)N1CCN(c2ccc(-n3c(=O)ccc4cnc5ccc(-c6cnc7ccccc7c6)cc5c43)cc2C(F)(F)F)CC1
- % of control [7]: 100%
